Inhibition and IC50 data for 14 compounds are collected here from patent US20090111810A1, “SUBSTITUTED PYRIMIDINE-5-CARBOXAMIDE AND 5-CARBOXYLIC ESTER KINASE INHIBITORS” (priority 2007, published 2009).

SMILES strings stand for the structures. pIC50: −log10 of the molar value. Where only a bound is given, the exact number is not on record here.

Experiment [1] has as its target T1, HER-2 kinase (GST-HIS6-Thrombin fusion, amino acids 679 to 1255 of HER-2) (Homo sapiens, UniProt P04626).
T1 construct: HIS6-Thrombin site (N); purchased Proqinase (Freiburg, Germany)
In words: HER-2 Kinase Assay. In kind it is biochemical. Particulars: for inhibition at 100 µM: test concentration of 100 μM, read-out: HER2 % inhibition; for pIC50: read-out: HER2 IC50. The method, then: The HER-2 kinase used was purified at Proqinase (Freiburg, Germany) from a construct that consisted of a fusion of GST (Glutathione-S-Transferase), HIS6-Thrombin and the nucleotides encoding amino acids 679 to 1255 of HER-2 (Accession Number M11730).
A mixture of a 10× kinase reaction buffer (600 mM Hepes at pH 7.5, 30 mM Magnesium Chloride, 0.03 mM Sodium Vanadate and 500 μg/mL PEG 20,000), DTT (1.2 mM final from a 10 mM stock), ATP (1 μM from a 10 mM stock), biotinylated polyGluTyr (1.5 ng/μL final from stock of 1 μg/μL) prepared by Upstate Biotechnologies, Lake Placid, N.Y.), Manganese Chloride (3 mM final from a 1 M stock), γ-^33P-ATP (10 μCi/μL stock) and water (70 μL/well) was added to each well of a Streptavidin Flashplate (Cat. # SMP103, NEN, Boston, Mass.).
Test compound stock (1 μL) was added to the appropriate wells. Diluted GSTHER2 kinase (6.7 ng/μL diluted into 50 mM Tris-HCl at pH 8.0 and 0.1% bovine serum albumin) (30 μL) was added (total volume of 200 ng/well) to initiate the reactions.
The reaction plates were incubated at 30° C. for 1 hr. The reaction was terminated by aspirating the reaction mixture from the plate wells and washing the wells three times with a 1× PBS stop buffer (300 μL) and 100 mM EDTA. After the final wash, the same stop buffer (200 μL) was again added to the wells. The plates were then sealed and read on the TopCount scintillation counter.
Test compounds were assayed in triplicate at 8 concentrations at one-log dilutions starting at 100 μM. A maximum and minimum signal for the assay was determined on each plate. The percent inhibition of a test compound was calculated according to the formula: […]
(§1) For a series of test concentrations, the IC50 was derived by graphing percent inhibition against the log of the concentrations tested for a given compound.

The target in experiment [2] is T2, EGFR kinase (GST fusion of intracellular portion of EGFR, NM_005228) (Homo sapiens, UniProt P00533).
T2 construct: The intracellular portion of EGFR started at nucleotide 2189 (corresponding to amino acid 667) and ended at the termination codon; made in house; host or cells: Sf9 insect cells (baculovirus)
Put plainly: EGFR Kinase Assay. It is filed as biochemical. The note with it: for inhibition at 2 µM: test concentration of 2 μM.
Source text: The portion was PCR amplified with primers that added the lambda attB sequences to each end, recombined into an entry vector, then into a (GST destination vector (as described in Gateway Technologies Manual by Invitrogen Corporation, Carlsbad, Calif.).
The destination vector was recombined in the DH10BAC strain of bacteria to produce a bacmid. The bacmid was transfected into Sf 9 cells and the supernatant containing the baculovirus was collected. The GSTEGFR protein was purified using large cultures of Sf 9 cells infected with stock virus. After an appropriate period of time, the cells were collected and lysed. The GSTEGFR was then purified from the lysate on Glutathione-Sepharose columns (as described by Amersham Biosciences, Buckinghamshire, United Kingdom).
The free biotin was separated from the biotinylated polyGluTyr on a gel filtration column.
A mixture of a 10× kinase buffer (500 mM Tris at pH 8.0, 100 mM Magnesium Chloride and 1 mM Sodium Vanadate), DTT (1 mM final from 500 mM stock), ATP (5 μM final from […]), biotinylated polyGluTyr (10 μg/μL stock), γ-^33P ATP (10 μCi/μL stock) and water was added to each well (90 μL/well) of a Streptavidin Flashplate (Perkin Elmer, Wellesley, Mass.).
Test compound in 100% DMSO (2 μL) was added to the appropriate wells. Diluted GSTEGFR (1:300 dilution in 50 mM Tris at pH 8.0 and 0.1% bovine serum albumin) (10 μL) was added to the wells to initiate the reactions.
The plates were incubated at 30° C. for 1 hr with shaking, The reacted contents were removed and the plates were sequentially washed three times with a 1×PBS stop buffer (300 μL without Magnesium and Calcium) and 100 mM EDTA. After the final wash, the same stop buffer (200 μL) was added to the wells. The plates were then sealed and read on the TopCount scintillation counter.
Test compounds were assayed in triplicate at 16 concentrations at half-log dilutions starting at 200 μM. A maximum and minimum signal for the assay was determined on each plate. The percent inhibition of a test compound was calculated according to the formula
as §1

The subject of another experiment is A375 malignant melanoma. In words: Inhibition of in vitro cell proliferation (14C-thymidine incorporation), A375. In kind it is cell-based. The note with it: Homo sapiens, A-375, A375 cells. The method, then:
(§2) The ability of a test compound to inhibit the proliferation of cell growth was determined by measuring incorporation of ^14C-labelled thymidine into newly synthesized DNA within the cells. This method was used on American Type Culture Collection (ATCC, Virginia) cell lines derived from carcinomas originating from several tissues such as HeLa cervical adenocarcinoma (ATCC Cat. #CCL-2), HCT-116 colon carcinoma (ATCC Cat. #CCL-247), and A375 malignant melanoma (ATCC Cat. #CRL-1619).
(§3) The carcinoma cells are trypsinized and counted. The cells (3000-8000 count) are added to each well of a 96-well CytoStar tissue culture treated scintillating microplate (Amersham #RPNQ0160) in complete medium (100 μL) and the plate is then incubated in complete medium for 24 hrs at 37° C. in an inert atmosphere containing 5% CO2.
(§4) Test compound (1 μL) in 100% DMSO is added to the plate test-wells with DMSO only added to control-wells. The plate is incubated in complete medium for a second 24 hr period at 37° C. in an atmosphere containing 5% CO2.
(§5) An aliquot of a solution of Methyl ^14C-thymidine (56 mC/mmol) (NEN #NEC568 or Amersham #CFA532) in complete medium (20 uL to provide 0.2 μCi/well) is then added to each well and the plate is incubated for a third 24 hr period at 37° C. in an atmosphere containing 5% CO2.
(§6) The plate contents are then discarded, the plate is washed twice with PBS (200 μL) and then PBS (200 μL) is added to each well. The plate is sealed and the degree of methyl ^14C-thymidine incorporation is quantified on a Packard Top Count.
For orientation: Incorporation of labelled thymidine or its analogues reports DNA synthesis.

For another experiment, the system named is HCT-116 colon carcinoma. Put plainly: Inhibition of in vitro cell proliferation (14C-thymidine incorporation), HCT116. It is filed as cell-based. The note with it: Homo sapiens, HCT116 cells. The method, then: as §2, §3, §4, §5, §6
Experiment [3] deals with HeLa cervical adenocarcinoma. Put plainly: Inhibition of in vitro cell proliferation (14C-thymidine incorporation), HeLa. In kind it is cell-based. Particulars: Homo sapiens, HeLa cells. On the procedure: as §2, §3, §4, §5, §6

T1 sequence (P04626 679-1255): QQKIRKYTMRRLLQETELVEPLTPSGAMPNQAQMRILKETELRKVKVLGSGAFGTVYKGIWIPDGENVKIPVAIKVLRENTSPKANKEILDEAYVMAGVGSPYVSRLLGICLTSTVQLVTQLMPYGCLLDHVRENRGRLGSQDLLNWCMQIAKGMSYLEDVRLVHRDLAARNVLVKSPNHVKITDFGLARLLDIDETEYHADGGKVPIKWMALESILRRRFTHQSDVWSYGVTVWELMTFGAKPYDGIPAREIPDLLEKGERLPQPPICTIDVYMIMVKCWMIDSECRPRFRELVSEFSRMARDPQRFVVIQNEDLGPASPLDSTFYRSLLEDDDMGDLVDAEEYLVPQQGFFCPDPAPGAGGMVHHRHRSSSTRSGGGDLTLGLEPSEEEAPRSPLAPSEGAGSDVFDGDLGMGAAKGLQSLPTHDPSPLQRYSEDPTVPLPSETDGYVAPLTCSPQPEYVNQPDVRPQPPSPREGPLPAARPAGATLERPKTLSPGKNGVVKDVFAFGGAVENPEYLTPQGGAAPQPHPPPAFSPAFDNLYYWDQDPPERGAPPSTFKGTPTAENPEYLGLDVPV
T2 sequence (P00533 669-1210 limits assumed): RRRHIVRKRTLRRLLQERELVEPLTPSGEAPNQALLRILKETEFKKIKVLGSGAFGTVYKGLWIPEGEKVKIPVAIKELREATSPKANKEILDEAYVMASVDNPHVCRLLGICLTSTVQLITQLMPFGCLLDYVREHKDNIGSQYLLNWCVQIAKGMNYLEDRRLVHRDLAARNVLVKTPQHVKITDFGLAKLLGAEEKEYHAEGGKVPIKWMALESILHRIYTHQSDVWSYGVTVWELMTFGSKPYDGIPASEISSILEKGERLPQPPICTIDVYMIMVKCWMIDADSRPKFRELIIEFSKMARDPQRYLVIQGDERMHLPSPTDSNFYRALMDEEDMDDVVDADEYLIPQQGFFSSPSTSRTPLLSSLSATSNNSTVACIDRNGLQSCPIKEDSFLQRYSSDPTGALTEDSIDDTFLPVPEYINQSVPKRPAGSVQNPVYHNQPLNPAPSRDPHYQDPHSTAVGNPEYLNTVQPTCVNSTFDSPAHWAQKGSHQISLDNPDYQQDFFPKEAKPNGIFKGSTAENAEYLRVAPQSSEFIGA

On to `Nc1ncnc(Nc2ccc(OCc3ccccc3)c(Cl)c2)c1C=O` [Cpd 14, 4-amino-6-(4-benzyloxy-3-chloro-phenylamino)-pyrimidine-5-carboxaldehyde], for which, in experiment [1], the inhibition (as a rule, the relative decrease from the control value, in per cent) at 100 µM came to 63%.

`Nc1ncnc(Nc2ccc(OCc3ccccc3)c(Cl)c2)c1C(=O)NCCN1CCOCC1` [Cpd 8, 4-amino-6-(4-benzyloxy-3-chloro-phenylamino)-pyrimidine-5-carboxylic acid (2-morpholin-4-yl-ethyl)-amide] had an inhibition at 2 µM in experiment [2] of 35%. The pIC50 (in the experiment on A375 malignant melanoma; with HCT-116 colon carcinoma; in experiment [3]) was less than 5.00 throughout. Besides, in experiment [1], the inhibition at 100 µM came out at 82%.

In the case of `COC(=O)c1c(N)ncnc1Nc1ccc(OCc2ccccc2)c(Cl)c1` [Cpd 1, 4-amino-6-(4-benzyloxy-3-chloro-phenylamino)-pyrimidine-5-carboxylic acid methyl ester], the negative-log IC50 (pIC50) – broadly, −log10 of the IC50, conventionally taken in molar units – in the experiment on A375 malignant melanoma was 6.00; in the experiment with HCT-116 colon carcinoma it was 5.52; in experiment [3] it was 5.72. Further, the inhibition at 100 µM in experiment [1] was 92%.

As for `Nc1ncnc(Nc2ccc(OCc3ccccc3)c(Cl)c2)c1C(=O)NCCN1CCCCC1` [Cpd 7, 4-amino-6-(4-benzyloxy-3-chloro-phenylamino)-pyrimidine-5-carboxylic acid (2-piperidin-1-yl-ethyl)-amide], the inhibition at 2 µM in experiment [2] was 42%. Further, the pIC50 in the experiment with A375 malignant melanoma is less than 6.00; in experiment [1] it was 5.00; in the experiment with HCT-116 colon carcinoma, less than 5.00; in experiment [3] it was 4.47.

For `Nc1ncnc(Nc2ccc(OCc3ccccc3)c(Cl)c2)c1C(=O)OCCN1CCOCC1` [Cpd 3, 4-amino-6-(4-benzyloxy-3-chloro-phenylamino)-pyrimidine-5-carboxylic acid 2-morpholin-4-yl-ethyl ester], the pIC50 in the experiment with A375 malignant melanoma is 5.29; in experiment [1], 5.86; in experiment [3], less than 5.00.

`COc1ccc(CCNC(=O)c2c(N)ncnc2Nc2ccc(OCc3ccccc3)c(Cl)c2)cc1` [Cpd 9, 4-amino-6-(4-benzyloxy-3-chloro-phenylamino)-pyrimidine-5-carboxylic acid [2-(4-methoxy-phenyl)-ethyl]-amide]: the inhibition at 2 µM in experiment [2] was determined as 28%. The pIC50 (with A375 malignant melanoma; in the experiment on HCT-116 colon carcinoma; in experiment [3]) was less than 4.00 each time. Further, in experiment [1], the inhibition at 100 µM amounted to 4%.

`Nc1ncnc(Nc2ccc(OCc3ccccc3)c(Cl)c2)c1C(=O)NNC(=O)CCN1CCOCC1` [Cpd 13, 4-amino-6-(4-benzyloxy-3-chloro-phenylamino)-pyrimidine-5-carboxylic acid N′-(3-morpholin-4-yl-propionyl)-hydrazide]: the pIC50 in experiment [2] is 6.21; in the experiment on A375 malignant melanoma, less than 4.00; in experiment [1] it was 5.24; with HCT-116 colon carcinoma it was less than 4.00; in experiment [3] it was less than 4.00.

As to `Nc1ncnc(Nc2ccc(OCc3ccccc3)c(Cl)c2)c1C(=O)Nc1ccccc1` [Cpd 10, 4-amino-6-(4-benzyloxy-3-chloro-phenylamino)-pyrimidine-5-carboxylic acid phenylamide], the pIC50 (with A375 malignant melanoma; with HCT-116 colon carcinoma; in experiment [3]) was less than 4.00 each time. In addition, the inhibition at 100 µM in experiment [1] came to 12%.

In the case of `Nc1ncnc(Nc2ccc(OCc3ccccc3)c(Cl)c2)c1C(=O)OCc1cccc(F)c1` [Cpd 4, 4-amino-6-(4-benzyloxy-3-chloro-phenylamino)-pyrimidine-5-carboxylic acid 3-fluoro-benzyl ester], 2 µM produced 34% inhibition in experiment [2]. For the same compound, the pIC50 (in the experiment with A375 malignant melanoma; with HCT-116 colon carcinoma; in experiment [3]) was less than 5.00 throughout. The inhibition at 100 µM in experiment [1] was 21%.

As to `COCCNC(=O)c1c(N)ncnc1Nc1ccc(OCc2ccccc2)c(Cl)c1` [Cpd 6, 4-amino-6-(4-benzyloxy-3-chloro-phenylamino)-pyrimidine-5-carboxylic acid (2-methoxy-ethyl)-amide], the inhibition at 2 µM in experiment [2] came to 37%. Further, the pIC50 (with A375 malignant melanoma; with HCT-116 colon carcinoma; in experiment [3]) was less than 4.00 each time. Besides, in experiment [1], the inhibition at 100 µM was determined as 33%.

In the case of `COc1ccc(NC(=O)c2c(N)ncnc2Nc2ccc(OCc3ccccc3)c(Cl)c2)cc1` [Cpd 11, 4-amino-6-(4-benzyloxy-3-chloro-phenylamino)-pyrimidine-5-carboxylic acid (4-methoxy-phenyl)-amide], the inhibition at 2 µM in experiment [2] stood at 36%. Further, the pIC50 (in the experiment with A375 malignant melanoma; in the experiment with HCT-116 colon carcinoma; in experiment [3]) was less than 4.00 in each case. The inhibition at 100 µM in experiment [1] was determined as 0%.

For the compound `NNC(=O)c1c(N)ncnc1Nc1ccc(OCc2ccccc2)c(Cl)c1` [Cpd 12, 4-amino-6-(4-benzyloxy-3-chloro-phenylamino)-pyrimidine-5-carboxylic acid hydrazide], the pIC50 was 5.77 in the experiment on A375 malignant melanoma, 6.82 in experiment [1], 5.47 in the experiment with HCT-116 colon carcinoma and 5.52 in experiment [3].

`CCN(CC)C(=O)c1c(N)ncnc1Nc1ccc(OCc2ccccc2)c(Cl)c1` [Cpd 5, 4-amino-6-(4-benzyloxy-3-chloro-phenylamino)-pyrimidine-5-carboxylic acid diethylamide] had an inhibition at 2 µM in experiment [2] of 36%. The pIC50 (with A375 malignant melanoma; in the experiment with HCT-116 colon carcinoma; in experiment [3]) was less than 5.00 each time. The inhibition at 100 µM in experiment [1] worked out at 39%.

On to `Nc1ncnc(Nc2ccc(OCc3ccccc3)c(Cl)c2)c1C(=O)O` [Cpd 2, 4-amino-6-(4-benzyloxy-3-chloro-phenylamino)-pyrimidine-5-carboxylic acid], for which the pIC50 is less than 5.00 in the experiment with A375 malignant melanoma, 6.11 in experiment [1], less than 5.00 in the experiment with HCT-116 colon carcinoma and less than 5.00 in experiment [3].
